For series [1], the system named is allogeneic T cell proliferation. Put plainly: Mixed leukocyte reaction (MLR), 3H-thymidine uptake. The class given is cell-based, mouse. The text has this: Lymph nodes (LNs) were harvested from B6 mice and T-cells were purified using by negative selection using PE-conjugated anti-CD19, anti-CD11c, anti-NK1.1 and anti-PE magnetic beads (Miltenyi Biotech). Purity was routinely >95%. Spleens were harvested from BALB/c mice, T-cell depleted (anti-Thy1.1), and irradiated (3000 cGy). B6 T-cells were mixed at a 1:1 ratio with BALB/c splenic stimulators and plated in a 96 well round bottom plate (10^5 T-cells/well) or in the lower chamber of a 24 well plate TransWell insert (10^6 T-cells/well). MAPCs were irradiated (3000 cGy) and plated in a 96 well round bottom plate (10^4/well, 1:10) or in a 24 well TransWell plate (10^5/well, 1:10). Cells were incubated in “T-cell media” in 200 μl/well (96 well) or 800 μl/well (24 well) of RPMI 1640 (Invitrogen, Carlsbad, Calif.) supplemented with 10% FCS, […] 2-ME (Sigma-Aldrich), 10 mM HEPES buffer (Invitrogen), 1 mM sodium pyruvate (Invitrogen), amino acid supplements (1.5 mM L-glutamine, L-arginine, L-asparagine) (Sigma-Aldrich), 100 U/ml penicillin, […] streptomycin (Sigma-Aldrich). Cells were pulsed with ^3H-thymidine (1 μCi/well) 16-18 hours prior to harvesting and counted in the absence of scintillation fluid on a β-plate reader. […] Trypan blue exclusion was used to assess effects on live cells. […]

The conditions of series [2]: cited from earlier work.
The next series deals with PGE2. Put plainly: PGE2 quantification in MAPC culture supernatant (PGE2 assay kit). The format is cell-based, mouse. Conditions: overnight treatment of MAPCs, 5 μM, for the period of the MLR culture (9 days). From the text:
Lymph nodes (LNs) were harvested from B6 mice and T-cells were purified using by negative selection using PE-conjugated anti-CD19, anti-CD11c, anti-NK1.1 and anti-PE magnetic beads (Miltenyi Biotech). Purity was routinely >95%. Spleens were harvested from BALB/c mice, T-cell depleted (anti-Thy1.1), and irradiated (3000 cGy). B6 T-cells were mixed at a 1:1 ratio with BALB/c splenic stimulators and plated in a 96 well round bottom plate (10^5 T-cells/well) or in the lower chamber of a 24 well plate TransWell insert (10^6 T-cells/well). MAPCs were irradiated (3000 cGy) and plated in a 96 well round bottom plate (10^4/well, 1:10) or in a 24 well TransWell plate (10^5/well, 1:10). […] Cells were pulsed with ^3H-thymidine (1 μCi/well) 16-18 hours prior to harvesting and counted in the absence of scintillation fluid on a β-plate reader. […]
Quantitative determination of PGE2 in cell culture supernatants was performed using PGE2 assay kit (R&D Systems) by following manufacturer's instructions. Quantities of IL-10, TGF-β, IL-2, TNF-α, IFN-γ, and IL-12 were determined using Luminex technology (R&D Systems). […] The color development is stopped, and the absorbance is read at 450 nm. […]

“Also recorded” adds a separate entry of the source.

For `Cn1cc(C[C@@H](N)C(=O)O)c2ccccc21` [1MT, 1-methyl-D-tryptophan], the “additive effect with indomethacin pre-treatment of MAPCs” value in series [1] (200 μM 1MT in co-culture plus MAPCs pre-treated with 5 μM indomethacin) is “little/no additive effect”. For the same compound, the “T-cell proliferation in MLR-MAPC co-cultures with IDO inhibitor” value in series [1] (200 μM in culture media) is listed as “did not increase T-cell proliferation; also recorded: did not affect T-cell proliferation”.
Consider `CCCCC[C@H](O)/C=C/[C@H]1[C@H](O)CC(=O)[C@@H]1C/C=C\CCCC(=O)O` [PGE2, prostaglandin E2], for which, in series [2], the half-life in vivo was around 30 s.
Take `COc1ccc2c(c1)c(CC(=O)O)c(C)n2C(=O)c1ccc(Cl)cc1` [indomethacin]: the “upstream synthesis of PGE2 by MAPCs” value with PGE2 is given as “potently inhibited”.
